Reference: US20100062987A1, “ANTICONVULSIVE PHARMACEUTICAL COMPOSITIONS” (INSERM (Institut National de la Sante et de la Recherche …, priority 2006, published 2010)

Legend:
[1] = system: patients; conditions: patients under therapeutical treatment; cited from earlier work
[2] = system: rats; conditions: cited from earlier work
[3] = system: BALB/c mice; assay: Retinal histology / immunolabelling of VGB-treated mice; format: in vivo; conditions: VGB 250 mg/kg i.p. daily for 30 days
Description: (§1) BALB/c mice (16 treated, 10 controls) were purchased from Janvier (Le Genest-St-lsle, France) at six weeks. VGB dissolved in 0.9%
(§2) NaCl at 100 mg/m1 was intraperitoneally injected daily for 30 days at a final concentration of 250 mg/kg as described for animal treatment of epilepsy (Andre V, Ferrandon A, Marescaux C, Nehlig A. Vigabatrin protects against hippocampal damage but is not antiepileptogenic in the lithium-pilocarpine model of temporal lobe epilepsy. Epilepsy Res. 2001;47:99-117). This dose was slightly higher than that prescribed to adult patient ([…]), children (100 mg/kg), or infants ([…]) (Bialer M, Johannessen S I, Kupferberg H J et al. Progress report on new antiepileptic drugs: a summary of the Fifth Eilat Conference (EILAT V). Epilepsy Res. 2001;43:11-58).
(§3) Eye cups were fixed overnight at 4° C. in 4% (wt/vol) paraformaldehyde in phosphate buffered saline (PBS) 0.01 M, pH 7.4. After cryoprotection in PBS containing successively 10%, 20% and 30% sucrose at 4° C., the tissue was embedded in OCT (Labonord, Villeneuve d'Ascq, France). Vertical sections (8-10 μm thickness) were permeabilized for 5 minutes in PBS containing 0.1% Triton X-100 (Sigma, St. Louis, Mo.), rinsed, and incubated in PBS containing 1% bovine serum albumin (Eurobio, Les-Ulis, France), 0.1% Tween 20 (Sigma), and 0.1% sodium azide (Merck, Fontenay-Sous-Bois, France) for 2 hours at room temperature. The primary antibody added to the solution was incubated for 2 hours at room temperature. The polycolonal antibodies were directed against the protein kinase C alpha (PKCα) (1:2000, Sigma), VGluT1 (1:2000, Chemicon), Goα (K-20; 1:100, Santa Cruz), calbindin D-28K (1:500, Chemicon), mouse cone arrestin/ Luminaire junior (LUMIj) (1:20,000, ^27). The monoclonal antibodies were directed against Goα (1:2000, Chemicon), bassoon (1:100, StressGen) and calbindin D-28K (1:500, Sigma). After rinses, sections were incubated with the secondary antibody, goat anti-rabbit IgG or rabbit anti-mouse IgG conjugated to either Alexa TM594 or Alexa TM488 (1:500, Molecular Probes, Eugene, Oreg.) for 2 hours. The dye, diamidiphenyl-indole (DAPI) was added to the last incubated solutions. Sections were rinsed, mounted with Fluorsave reagent (Calbiochem, San Diege, Calif.) and viewed with a Leica microscope (LEICA DM 5000B) equipped with a Ropper scientific camera (Photometrics cool SNAP TM FX).

[4] = system: BALB/c mice; assay: Light dependence of the vigabatrin-elicited retinal toxicity (darkness vs 12h light/dark cycle); format: in vivo
Description: as §1, §2, §3
Albino rats only are sensitive to the VGB-elicited retinal toxicity (Butler W H, Ford G P, Newberne J W. A study of the effects of vigabatrin on the central nervous system and retina of Sprague Dawley and Lister-Hooded rats. Toxicol Pathol. 1987;15:143-148). […]

[5] = animals maintained in a dark room throughout the treatment

Areas with a highly disorganized outer nuclear layer (ONL), animals affected ([3]; albino mice): 5 of 16
Cone photoreceptor terminals, cone arrestin and Goα immunolabelling ([3]; mice): cone terminals remained in the OPL
Cone photoreceptors, cone arrestin immunolabelling ([3]; mice): cone outer segments had disappeared
Photoreceptor synaptic vesicles, VGLUT1 immunolabelling ([3]; mice): observed deep into the ONL
GFAP staining of glial Muller cells ([3]; mice, vs control albino mice): not increased
SMILES: C=CC(N)CCC(=O)O (stereo not shown) [VGB, 4-amino-5-hexenoic acid]
Undesirable effects on vision [1]: irreversible constriction of the visual field
Major retinal changes [2]: retinal architecture disorganization, a major glial reaction, cone damages and photoreceptor apoptosis
Contact of rod photoreceptor terminals with postsynaptic neurons, VGLUT1/Goα and bassoon/PKCα double immunolabelling ([3]; mice): a few synaptic ribbons were not contacted by a rod bipolar cell dendrite
Horizontal cell dendrites, calbindin immunolabelling ([3]; mice): horizontal cells extended their dendrites deep into the ONL
ON bipolar cell dendrites, Goα immunolabelling ([3]; mice): extended their dendrites deep into the ONL
Photoreceptor synaptic ribbon, bassoon immunolabelling ([3]; mice): punctuate labelling was observed to penetrate deep into the ONL
Rod and cone ON bipolar cell plasticity, PKCα and Goα double immunolabelling ([3]; mice): both rod and cone ON bipolar cells underwent plasticity
Bipolar cell dendritic growth in the ONL [4, 5]: found not to grow dendrites in the ONL
Photoreceptor terminal withdrawal in the ONL [4, 5]: did not retract their terminals in the ONL
Other retinal damages like ONL disorganization ([4]; animals maintained in darkness): not observed
Bipolar cell dendritic growth and photoreceptor terminal withdrawal ([4]; animals under the 12h light/dark cycle): showed the bipolar cell dendritic growth and the photoreceptor terminal withdrawal
